Results as given in patent US7935670B2, “Hepatitis C virus inhibitors” (Bristol-Myers Squibb Company, priority 2006, dated 2011).

Biological target: T1, HCV NS3/4A protease complex, J4L6S strain (Hepatitis C virus genotype 1b, UniProt O92972, C1454S/C1711G)
T1 construct: DNA encoding the recombinant HCV NS3/4A protease complex (amino acids 1027 to 1711) for these strains; His tag (inferred from pET21b vector and Ni-NTA purification); made in house; host or cells: Escherichia coli BL21 (DE3), pET21b
Experiment: FRET peptide assay to monitor HCV NS3/4A proteolytic activity (J4L6S strain)
Assay type: biochemical, HCV genotype 1b
Source text: HCV NS3 protease complexes, derived from the BMS strain, H77 strain or J4L6S strain, were generated, as described below. These purified recombinant proteins were generated for use in a homogeneous assay (see below) to provide an indication of how effective compounds of the present disclosure would be in inhibiting HCV NS3 proteolytic activity.
Serum from an HCV-infected patient was obtained from Dr. T. Wright, San Francisco Hospital. An engineered full-length cDNA (compliment deoxyribonucleic acid) template of the HCV genome (BMS strain) was constructed from DNA fragments obtained by reverse transcription-PCR(RT-PCR) of serum RNA (ribonucleic acid) and using primers selected on the basis of homology between other genotype 1a strains. From the determination of the entire genome sequence, a genotype 1a was assigned to the HCV isolate according to the classification of Simmonds et al. (See P Simmonds, K A Rose, S Graham, S W Chan, F McOmish, B C Dow, E A Follett, P L Yap and H Marsden, J. Clin. Microbiol., 31(6), 1493-1503 (1993)). […]

T1 sequence (O92972 1027-1711 C1454S/C1711G, one chain of several): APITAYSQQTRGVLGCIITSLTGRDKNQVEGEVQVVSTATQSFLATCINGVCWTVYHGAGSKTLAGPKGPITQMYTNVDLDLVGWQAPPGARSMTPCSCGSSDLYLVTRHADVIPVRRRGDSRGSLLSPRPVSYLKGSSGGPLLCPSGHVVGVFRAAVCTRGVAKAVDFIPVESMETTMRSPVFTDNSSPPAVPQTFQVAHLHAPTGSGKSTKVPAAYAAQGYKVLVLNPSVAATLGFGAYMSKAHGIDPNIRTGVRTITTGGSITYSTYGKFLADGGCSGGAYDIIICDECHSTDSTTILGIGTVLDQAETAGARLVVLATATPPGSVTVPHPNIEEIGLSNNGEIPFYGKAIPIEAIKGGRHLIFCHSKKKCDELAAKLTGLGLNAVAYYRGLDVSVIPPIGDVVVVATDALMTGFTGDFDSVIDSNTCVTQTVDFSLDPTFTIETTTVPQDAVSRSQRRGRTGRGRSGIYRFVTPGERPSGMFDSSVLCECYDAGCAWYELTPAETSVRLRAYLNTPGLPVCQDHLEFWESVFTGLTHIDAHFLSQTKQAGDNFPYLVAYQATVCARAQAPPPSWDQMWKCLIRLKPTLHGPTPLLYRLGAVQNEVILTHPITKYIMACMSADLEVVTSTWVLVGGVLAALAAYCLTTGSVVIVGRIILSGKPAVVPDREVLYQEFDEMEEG

C=C[C@@H]1C[C@]1(NC(=O)[C@@H]1C[C@@H](OC(=O)c2ccccc2)CN1C(=O)[C@@H](NC(=O)OC(C)(C)C)C(C)(C)C)C(=O)NS(=O)(=O)C1CC1 [Compound 1]
IC50: 2.5 nM
